Reference: the supplement of paper PMC12137928
Counter-ions that a name gives are not always drawn.

Test system: HCT116
Details: 72 h
Procedure, shortened: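 Luminescence was read with CellTiter-Glo in HCT116 cells seeded at 250 per well in 1536-well plates. Signals were scaled between vehicle at 0% and positive control at -100%, then pattern-corrected. IC50 and maximal efficacy were obtained by fitting a four-parameter Hill equation.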

Row | Structure (SMILES) | IC50 cell viability (ICRF193 0 nM) | IC50 cell viability (ICRF193 200 nM)
1 | CC(C)(C)CC(C)(C)c1cc(Cc2cc(C(C)(C)CC(C)(C)C)cc(-n3nc4ccccc4n3)c2O)c(O)c(-n2nc3ccccc3n2)c1 | > 45.8 µM | > 45.8 µM
2 | CNC(C)C(O)c1ccc(O)cc1 (centres undefined) | > 45.8 µM | > 45.8 µM
3 | CSCCNc1nc(SCCC(F)(F)F)nc2c1ncn2[C@@H]1O[C@H](COP(=O)(O)OP(=O)(O)C(Cl)(Cl)P(=O)(O)O)[C@@H](O)[C@H]1O | > 45.8 µM | > 45.8 µM
4 | Cl/C=C\C[N+]12CN3CN(CN(C3)C1)C2 | > 45.8 µM | > 45.8 µM
5 | OC[C@H]1O[C@@H](O[C@@H]2[C@@H](CO)OC(O)(CO)[C@H]2O)[C@H](O)[C@@H](O)[C@H]1O (mixture of isomers) [Lactulose] | > 45.8 µM | > 45.8 µM
6 | CCCCC(C)(O)C/C=C/[C@H]1[C@H](O)CC(=O)[C@@H]1CCCCCCC(=O)OC (mixture of isomers) [Misoprostol] | > 45.8 µM | > 45.8 µM
7 | CCCCCCCCCCCCCC(=O)OCC(COP(=O)([O-])OCC[N+](C)(C)C)OC(=O)CCCCCCCCCCCCC (racemic) [1,2-Ditetradecanoyl-rac-glycerol-3-phosphocholine] | > 45.8 µM | > 45.8 µM
8 | CCCCCCCCCCCCCCCCCC(=O)OCC(O)CO (racemic) [1-Stearoyl-rac-glycerol] | > 45.8 µM | > 45.8 µM
9 | C[N+](C)(C)CC(O)CC(=O)[O-] (racemic) [DL-Carnitine HCl] | > 45.8 µM | > 45.8 µM
10 | CC[C@H](C)[C@H](N)C(=O)O (racemic) [DL-Isoleucine] | > 45.8 µM | > 45.8 µM
11 | C[N+]1([O-])[C@@H]2CC(OC(=O)[C@H](CO)c3ccccc3)C[C@H]1[C@@H]1O[C@@H]12 (single isomer, unassigned; (-)) [(-)-Scopolamine N-oxide] | > 45.8 µM | > 45.8 µM
12 | CC(C1=C(CCN(C)C)Cc2ccccc21)c1ccccn1 (stereo in doubt) [(S)-(+)-Dimethindene maleate] | > 45.8 µM | > 45.8 µM

Continued, values first:

Row | IC50 cell viability (ICRF193 0 nM) | IC50 cell viability (ICRF193 200 nM) | Structure (SMILES)
13 | > 45.8 µM | > 45.8 µM | CCOc1cc([C@@H](CS(C)(=O)=O)N2C(=O)c3cccc(NC(C)=O)c3C2=O)ccc1OC
14 | > 45.8 µM | > 45.8 µM | CCOc1ccc(Cc2cc([C@]34OC[C@](CO)(O3)[C@@H](O)[C@H](O)[C@H]4O)ccc2Cl)cc1
15 | > 45.8 µM | > 45.8 µM | C[C@H]1C[C@@H]2[C@H]([C@@H](O)C[C@@]3(C)[C@H]2CC[C@]3(O)C(=O)COC(=O)CCC(=O)O)[C@@]2(C)C=CC(=O)C=C12
16 | > 45.8 µM | > 45.8 µM | OC[C@H]1O[C@@H](c2ccc(Cl)c(Cc3ccc(O[C@H]4CCOC4)cc3)c2)[C@H](O)[C@@H](O)[C@@H]1O
17 | > 45.8 µM | > 45.8 µM | OCc1cc([C@@H](O)CNCCCCCCOCCOCc2c(Cl)cccc2Cl)ccc1O
18 | > 45.8 µM | > 45.8 µM | CC#CCC(C)[C@H](O)/C=C/[C@@H]1[C@H]2c3cccc(CCCC(=O)O)c3O[C@H]2C[C@H]1O (mixture of isomers) [Beraprost sodium]
19 | > 45.8 µM | > 45.8 µM | NC(CS)C(=O)O (racemic) [DL-Cysteine]
20 | > 45.8 µM | > 45.8 µM | Cc1c(C)c2c(c(C)c1OC(=O)c1cccnc1)CC[C@@](C)(CCC[C@H](C)CCC[C@H](C)CCCC(C)C)O2 (racemic) [DL-alpha Tocopheryl nicotinate]
21 | > 45.8 µM | > 45.8 µM | CC(=O)Oc1c(C)c(C)c2c(c1C)CCC(C)(CCCC(C)CCCC(C)CCCC(C)C)O2 (racemic) [dl-alpha-Tocopheryl acetate]
22 | > 45.8 µM | > 45.8 µM | C=C(C)CNc1ccc(C(C)C(=O)O)cc1 (racemic) [rac Alminoprofen]
